Our source for the IC50 values is US11952349B2, “Anti-cancer nuclear hormone receptor-targeting compounds” (Nuvation Bio Inc., priority 2019, dated 2024).

Each structure is given as a SMILES string. Where only a bound is given, the exact number is not on record here.

Assay [1] concerns the target T1, GR, cytosol from IM-9 cells (Homo sapiens, UniProt P04150).
T1 construct: endogenous in cells; host or cells: IM-9 cells (cytosol)
T1 sequence (P04150 1-777): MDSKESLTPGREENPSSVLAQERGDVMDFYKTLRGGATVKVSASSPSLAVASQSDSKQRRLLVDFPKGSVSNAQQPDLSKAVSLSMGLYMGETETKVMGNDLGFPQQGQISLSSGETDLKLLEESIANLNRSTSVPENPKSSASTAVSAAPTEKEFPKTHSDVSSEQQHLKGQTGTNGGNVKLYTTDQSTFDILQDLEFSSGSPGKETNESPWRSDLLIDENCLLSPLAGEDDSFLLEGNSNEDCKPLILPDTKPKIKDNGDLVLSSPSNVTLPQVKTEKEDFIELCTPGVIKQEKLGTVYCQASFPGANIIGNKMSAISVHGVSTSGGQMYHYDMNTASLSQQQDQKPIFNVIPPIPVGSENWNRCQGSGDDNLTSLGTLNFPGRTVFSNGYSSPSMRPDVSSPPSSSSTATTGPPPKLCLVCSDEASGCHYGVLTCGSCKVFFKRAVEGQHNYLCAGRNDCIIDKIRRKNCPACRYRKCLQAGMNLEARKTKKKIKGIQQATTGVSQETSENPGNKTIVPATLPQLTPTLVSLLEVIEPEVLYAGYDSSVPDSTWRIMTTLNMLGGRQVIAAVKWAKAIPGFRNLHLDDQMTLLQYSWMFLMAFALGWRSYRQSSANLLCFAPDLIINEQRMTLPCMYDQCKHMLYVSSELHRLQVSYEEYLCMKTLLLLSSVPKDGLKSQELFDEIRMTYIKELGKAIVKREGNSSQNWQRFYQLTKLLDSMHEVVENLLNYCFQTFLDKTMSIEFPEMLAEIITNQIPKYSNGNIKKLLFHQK
Put plainly: GR binding assay, 3H-Dexamethasone. To be noted: Table 8; 3H-Dexamethasone 1.5 nM. Here is the method: GR binding assay: To assess GR binding, test compound (top dose 1 μM, 4 fold serial dilution, 8 point dose response) and control (dexamethasone) were transferred to the assay plate. Cytosol from IM-9 cells was added to the plate, followed by addition of radiolabeled ^3H-Dexamethasone at a final concentration of 1.5 nM. The plate was sealed, and the reaction was incubated at 300 rpm at 4° C. for 24 hrs. Radioligand absorption buffer (10 mM Tris-HCl, pH 7.4; 1.5 mM EDTA; 1 mM DTT; 0.25% charcoal; 0.0025% dextran) was then added to the plate, mixed, and incubated at 4° C. for 15 minutes. The plate was then centrifuged at […] for 30 minutes at 4° C. The supernatant was transferred to the scint-tube and Tri-carb was used for scintillation counting. The data was analyzed using GraphPadPrism v5.0 and binding IC50 was determined as the concentration where 50% inhibition of radioligand binding was observed.

The target of assay [2] is T2, Progesterone PR-B receptors from human breast carcinoma T47D cells (Homo sapiens, UniProt P06401).
T2 construct: endogenous in cells; host or cells: T47D human breast carcinoma cells (cell supernatant)
T2 sequence (P06401 1-933): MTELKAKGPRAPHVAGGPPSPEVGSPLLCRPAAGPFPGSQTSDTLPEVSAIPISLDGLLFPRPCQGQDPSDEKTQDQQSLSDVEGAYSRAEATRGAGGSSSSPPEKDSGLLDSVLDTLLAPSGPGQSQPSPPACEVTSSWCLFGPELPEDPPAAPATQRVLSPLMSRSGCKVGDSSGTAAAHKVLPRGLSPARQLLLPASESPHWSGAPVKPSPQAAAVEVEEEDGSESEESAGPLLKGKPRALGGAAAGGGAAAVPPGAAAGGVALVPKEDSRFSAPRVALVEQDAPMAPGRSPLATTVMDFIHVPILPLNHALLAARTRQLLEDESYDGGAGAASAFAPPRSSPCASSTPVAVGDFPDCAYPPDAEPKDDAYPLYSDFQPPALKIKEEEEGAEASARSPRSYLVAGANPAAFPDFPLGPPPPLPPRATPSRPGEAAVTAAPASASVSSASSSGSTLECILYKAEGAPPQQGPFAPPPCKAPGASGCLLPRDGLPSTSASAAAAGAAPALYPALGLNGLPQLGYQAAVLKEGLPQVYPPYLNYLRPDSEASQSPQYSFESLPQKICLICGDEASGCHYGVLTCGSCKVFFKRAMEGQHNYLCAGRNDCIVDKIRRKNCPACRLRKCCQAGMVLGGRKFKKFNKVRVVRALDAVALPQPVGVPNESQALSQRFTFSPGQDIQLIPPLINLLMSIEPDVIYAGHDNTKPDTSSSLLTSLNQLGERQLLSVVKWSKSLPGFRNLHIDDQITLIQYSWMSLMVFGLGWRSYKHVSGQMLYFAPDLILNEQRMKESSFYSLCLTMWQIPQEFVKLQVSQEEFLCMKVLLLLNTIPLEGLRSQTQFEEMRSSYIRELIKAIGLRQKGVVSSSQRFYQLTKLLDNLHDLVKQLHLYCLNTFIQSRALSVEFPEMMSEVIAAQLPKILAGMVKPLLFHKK
Briefly: PR binding assay, [3H]Progesterone. To be noted: Table 8; 0.5 nM [3H]Progesterone. Here is the method:
PR binding assay: Progesterone PR-B receptors from human breast carcinoma T47D cells are used in modified Na2HPO4/NaH2PO4 buffer pH 7.4. Compounds were screened at a range of doses (Top dose 40 nM, 4 fold serial dilution, 8 point dose response) and were dispensed into the assay plate. Supernatant of 1.2×10^5 cells aliquot was added to the assay plate and was incubated with 0.5 nM [^3H]Progesterone for 20 hours at 4° C. Membranes are filtered and washed, the filters are then counted to determine [^3H]Progesterone specifically bound. Binding IC50 was determined as the concentration where 50% inhibition of radioligand binding was observed.

For the next assay, the system named is T47D cells. Put plainly: Cell viability assay (CellTiterGlo, 6 days) T47D. The assay is classed as cell-based. To be noted: Homo sapiens, 144 h, Table 8. Here is the method: Cell viability assay: LNCap, 22Rv1, and T47D cells were seeded at a density of 1500-2000 cells/well in 96 well plates, and a ‘T0’ (timepoint 0) was included along with the assay plate. The plates were then incubated at 37° C., 5% CO2 in a cell culture incubator overnight. On the next day, the ‘T0’ plate was assayed using CellTiterGlo (Promega, Inc) according to the manufacturer's instructions. The appropriate compounds were diluted in DMSO and added to the assay plate (final DMSO concentration of 0.2%) on the next day. The assay plates were incubated for 6 days at 37° C., 5% CO2. After the incubation period, the plates were assayed using CellTiterGlo (Promega, Inc) according to the manufacturer's instructions and luminescence was read on the EnVision plate reader. Inhibition the tested compounds was determined by the following formula: Inhibition rate (%)=(1−(RLU compound−RLU day0)/(RLU control−RLU day0))*100%. GraphPadPrism was used to analyze the data and determine absolute IC50 values.
A general note: ATP-based viability assays read luminescence as a measure of living cells.

A word on the IC50: it is the concentration needed to halve the response being measured. High values mean weaker potency, low ones greater potency. `CC#C[C@]1(O)CC[C@H]2[C@@H]3CCC4=CC(=O)CCC4=C3[C@@H](c3ccc(N(C)CCCCCC(=O)N4CCN(C(=O)c5cc(Cc6n[nH]c(=O)c7ccccc67)ccc5F)CC4)cc3)C[C@@]21C` [Compound 135, 4-(4-fluoro-3-(4-(6-((4-((8S,11R,13S,14S,17S)-17-hydroxy-13-methyl-3-oxo-17-(prop-1-ynyl)-2,3,6,7,8,11,12,13,14,15,16,17-dodecahydro-1H-cyclopenta[a]phenanthren-11-yl)phenyl)(methyl)amino)hexanoyl)piperazine-1-carbonyl)benzyl)phthalazin-1(2H)-one]: the half-maximal inhibitory concentration (IC50) in assay [1] is below 10 nM; in assay [2], below 10 nM; in the assay on T47D cells it was 100 to 1000 nM.
In the case of `CC(=O)O[C@]1(C(C)=O)CC[C@H]2[C@@H]3CCC4=CC(=O)CCC4=C3[C@@H](c3ccc(N(C)CCCCCC(=O)N4CCN(C(=O)c5cc(Cc6n[nH]c(=O)c7ccccc67)ccc5F)CC4)cc3)C[C@@]21C` [Compound 1378, (8S,11R,13S,14S,17R)-17-acetyl-11-(4-((6-(4-(2-fluoro-5-((4-oxo-3,4-dihydrophthalazin-1-yl)methyl)benzoyl)piperazin-1-yl)-6-oxohexyl)(methyl)amino)phenyl)-13-methyl-3-oxo-2,3,6,7,8,11,12,13,14,15,16,17-dodecahydro-1H-cyclopenta[a]phenanthren-17-yl acetate], the IC50 is below 10 nM in assay [1], below 10 nM in assay [2] and 100 to 1000 nM with T47D cells.
Regarding `CC(=O)O[C@]1(C(C)=O)CC[C@H]2[C@@H]3CCC4=CC(=O)CCC4=C3[C@@H](c3ccc(N(C)CCCCCC(=O)NCCOCCOCC(=O)N4CCN(C(=O)c5cc(Cc6n[nH]c(=O)c7ccccc67)ccc5F)CC4)cc3)C[C@@]21C` [Compound 1384, (8S,11R,13S,14S,17R)-17-acetyl-11-(4-((6-(2-(2-(2-(4-(2-fluoro-5-((4-oxo-3,4-dihydrophthalazin-1-yl)methyl)benzoyl)piperazin-1-yl)-2-oxoethoxy)ethoxy)ethylamino)-6-oxohexyl)(methyl)amino)phenyl)-13-methyl-3-oxo-2,3,6,7,8,11,12,13,14,15,16,17-dodecahydro-1H-cyclopenta[a]phenanthren-17-yl acetate], the IC50 in assay [1] is below 10 nM; in assay [2], below 10 nM; in the assay on T47D cells it was 1000 to 10000 nM.
For the molecule `C[C@]12CC[C@H]3[C@@H](CCC4=CC(=O)CC[C@@]43C)[C@@H]1CC[C@@H]2C(=O)COCCCCCC(=O)N1CCN(C(=O)c2cc(Cc3n[nH]c(=O)c4ccccc34)ccc2F)CC1` [Compound 1386, 4-(3-(4-(6-(2-((8S,9S,10R,13S,14S,17S)-10,13-dimethyl-3-oxo-2,3,6,7,8,9,10,11,12,13,14,15,16,17-tetradecahydro-1H-cyclopenta[a]phenanthren-17-yl)-2-oxoethoxy)hexanoyl)piperazine-1-carbonyl)-4-fluorobenzyl)phthalazin-1(2H)-one], the IC50 in assay [1] lay in the range of 100 to 1000 nM; in assay [2] it was 10 to 100 nM; with T47D cells, 100 to 1000 nM.
As for `CC#C[C@]1(O)CC[C@H]2[C@@H]3CCC4=CC(=O)CCC4=C3[C@@H](c3ccc(N(C)CCCCCC(=O)NCCOCCOCC(=O)N4CCN(C(=O)c5cc(Cc6n[nH]c(=O)c7ccccc67)ccc5F)CC4)cc3)C[C@@]21C` [Compound 1429, N-(2-(2-(2-(4-(2-fluoro-5-((4-oxo-3,4-dihydrophthalazin-1-yl)methyl)benzoyl)piperazin-1-yl)-2-oxoethoxy)ethoxy)ethyl)-6-((4-((8S,11R,13S,14S,17S)-17-hydroxy-13-methyl-3-oxo-17-(prop-1-ynyl)-2,3,6,7,8,11,12,13,14,15,16,17-dodecahydro-1H-cyclopenta[a]phenanthren-11-yl)phenyl)(methyl)amino)hexanamide], the IC50 was below 10 nM in assay [1], below 10 nM in assay [2] and above 10000 nM in the assay on T47D cells.
